Results taken from patent US20170121344A1 (Siga Technologies, Inc., priority 2009, published 2017).
Where two headings read alike, the source gives them in different places.

System: Dengue-2 (Strain New Guinea C)
Assay: Viral yield assay against Dengue-2 in Vero cells
Assay type: cell-based, Dengue virus
Details: Dengue virus
Summary of the method: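 Infect Vero cells with virus (MOI 0.1), add compound or DMSO, incubate at 37° C, collect progeny at 48 hours post infection, then titrate on Vero cells to obtain EC50.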

[1] = DENV2, viral yield assay, Vero cells, MOI 0.1, 48 hours post infection, read-out: Activity (EC50 in μM) DENV-2
[2] = Vero cells, MOI 0.1, harvested 48 hours post infection, read-out: Activity (EC50 class) against Dengue-2 Virus in Vero cells
[3] = Vero, 48 h, read-out: Activity (EC50 class) against Dengue-2 Virus in Vero cells

SMILES	EC50 [1] [µM]	EC50 [2] [µM]	also measured
Cc1ccc(-c2ccc3c(N)c(C(=O)Nc4ccccc4C)sc3n2)cc1 [Compound 637, 3-amino-N-(o-tolyl)-6-(p-tolyl)thieno [2,3-b]pyridine-2-carboxamide]	< 5		
Nc1c(C(=O)Nc2cc(Cl)ccc2Cl)sc2nc(-c3ccc(Cl)cc3)ccc12 [Compound 347, 3-amino-6-(4-chlorophenyl)-N-(2,5-dichloro-phenyl)thieno [2,3-b]pyridine-2-carboxamide]	< 5		
N#Cc1cc2c(N)c(C(=O)Nc3ccccc3F)sc2nc1N [Compound 135, 3,6-Diamino-5-cyano-thieno[2,3-b]pyridine-2-carboxylic acid (2-fluoro-phenyl)-amide]		> 25	
Cc1cccc(C)c1NC(=O)c1sc2nc(N)c(C#N)cc2c1N [Compound 127, 3,6-Diamino-5-cyano-thieno[2,3-b]pyridine-2-carboxylic acid (2,6-dimethyl-phenyl)-amide]		> 25	
COc1ccc(NC(=O)c2sc3nc(N4CCOCC4)c4c(c3c2N)CC(C)(C)OC4)cc1 [Compound 244, 1-Amino-8,8-dimethyl-5-morpholin-4-yl-8,9-dihydro-6H-7-oxa-3-thia-4-aza-cyclopenta[a]naphthalene-2-carboxylic acid (4-methoxy-phenyl)-amide]			EC50 [3]: > 25 µM
Cc1cc(C)c2c(C)c(C(=O)NCC(C)C)sc2n1 [Compound 395, N-isobutyl-3,4,6-trimethyl-thieno[2,3-b] pyridine-2-carboxamide]	5 to 25		
Nc1c(C(=O)Nc2ccc(S(=O)(=O)O)cc2)sc2nc(-c3ccc(Cl)cc3)ccc12 [Compound 346, 4-[[3-amino-6-(4-chlorophenyl)thieno[2,3-b]pyridine-2-carbonyl]amino]benzenesulfonic acid]	< 5		
COC(=O)c1ccccc1NC(=O)c1sc2nc(N)c(C#N)cc2c1N [Compound 133, 2-[(3,6-Diamino-5-cyano-thieno[2,3-b]pyridine-2-carbonyl)-amino]-benzoic acid methyl ester]		> 25	
Cc1cc(C)c2c(C)c(C(=O)NCc3ccco3)sc2n1 [Compound 389, N-(2-furylmethyl)-3,4,6-trimethyl-thieno [2,3-b]pyridine-2-carboxamide]	5 to 25		
C=CCc1c(C)nc2sc(C(=O)Nc3ccc([N+](=O)[O-])cc3)c(N)c2c1C [Compound 225, 5-Allyl-3-amino-4,6-dimethyl-thieno[2,3-b]pyridine-2-carboxylic acid (4-nitro-phenyl)-amide]		> 25	
NC(=O)c1sc2nc3c(c(-c4ccc(Cl)cc4)c2c1N)CCCC3 [Compound 224, 3-Amino-4-(4-chloro-phenyl)-5,6,7,8-tetrahydro-thieno[2,3-b]quinoline-2-carboxylic acid amide]			EC50 [3]: > 25 µM
COc1ccc(NC(=O)c2sc3nc(-c4ccc(F)cc4)ccc3c2N)c(C)c1 [Compound 624, 3-amio-6-(4-fluorophenyl)-N-(4-methoxy-2-methyl-phenyl)thieno[2,3-b] pyridine-2-carboxamide]	< 5		
CN1CCc2nc3sc(C(=O)Nc4nc5ccccc5s4)c(N)c3cc2C1 [Compound 62, 3-Amino-6-methyl-5,6,7,8-tetrahydro-thieno[2,3-b][1,6]naphthyridine-2-carboxylic acid benzothiazol-2-ylamide]		< 5	
Nc1c(C(=O)Nc2ccccc2)sc2nc3c(cc12)CCCCC3 [Compound 217, 3-Amino-6,7,8,9-tetrahydro-5H-1-thia-10-aza-cyclohepta[f]indene-2-carboxylic acid phenylamide]		> 25	
Cc1ccc(NC(=O)c2sc3nc4c(cc3c2N)CN(C)CC4)c(C)c1 [Compound 17, 3-Amino-6-methyl-5,6,7,8-tetrahydro-thieno[2,3-b][1,6]naphthyridine-2-carboxylic acid (2,4-dimethyl-phenyl)-amide]		< 5	
CCN(CC)C(=O)c1sc2nc(-c3cccs3)cc(C(F)(F)F)c2c1N [Compound 85, 3-Amino-6-thiophen-2-yl-4-trifluoromethyl-thieno[2,3-b]pyridine-2-carboxylic acid diethylamide]		5 to 25	
Nc1c(C(=O)Nc2ccccc2F)sc2nc(-c3ccc4c(c3)OCO4)ccc12 [Compound 538, 3-amino-6-(1,3-benzodioxol-5-yl)-N-(2-fluorophenyl)thieno[2,3-b]pyridine-2-carboxamide]	< 5		
CN1CCc2nc3sc(C(=O)Nc4ccccc4Cl)c(N)c3cc2C1 [Compound 19, 3-Amino-6-methyl-5,6,7,8-tetrahydro-thieno[2,3-b][1,6]naphthyridine-2-carboxylic acid (2-chloro-phenyl)-amide]		< 5	
Cc1cccc(NC(=O)c2sc3nc4c(cc3c2N)CCCCC4)c1 [Compound 117, 3-Amino-6,7,8,9-tetrahydro-5H-1-thia-10-aza-cyclohepta[f]indene-2-carboxylic acid m-tolylamide]		> 25	

SMILES	EC50 [1] [µM]	EC50 [2] [µM]	also measured
NC(=O)c1sc2nc3c(cc2c1N)CCCCC3 [Compound 82, 3-Amino-6,7,8,9-tetrahydro-5H-1-thia-10-aza-cyclohepta[f]indene-2-carboxylic acid amide]		5 to 25	
CN1CCc2nc3sc(C(=O)Nc4cccc(Cl)c4)c(N)c3cc2C1 [Compound 18, 3-Amino-6-methyl-5,6,7,8-tetrahydro-thieno[2,3-b][1,6]naphthyridine-2-carboxylic acid (3-chloro-phenyl)-amide]		< 5	
COCc1cc(C)nc2sc3c(=O)n(-c4ccc(C)cc4C)nnc3c12 [Compound 151, 3-(2,4-Dimethyl-phenyl)-9-methoxymethyl-7-methyl-3H-pyrido[3′,2′:4,5]thieno[3,2-d][1,2,3]triazin-4-one]		> 25	
COCc1cc(C)nc2sc(C(=O)Nc3ccc(Cl)cc3)c(N)c12 [Compound 81, 3-Amino-4-methoxymethyl-6-methyl-thieno[2,3-b]pyridine-2-carboxylic acid (4-chloro-phenyl)-amide]			EC50 [3]: 5 to 25 µM
CCOc1cccc(NC(=O)c2sc3nc4c(cc3c2N)CN(C)CC4)c1 [Compound 108, 3-Amino-6-methyl-5,6,7,8-tetrahydro-thieno[2,3-b][1,6]naphthyridine-2-carboxylic acid (3-ethoxy-phenyl)-amide]		5 to 25	
CN1CCc2nc3sc(C(=O)Nc4c(F)cccc4F)c(N)c3cc2C1 [Compound 277, 3-Amino-6-methyl-5,6,7,8-tetrahydro-thieno[2,3-b][1,6]naphthyridine-2-carboxylic acid (2,6-difluoro-phenyl)-amide]		> 25	
NC(=O)c1sc2nccc(Nc3ccccc3)c2c1N [Compound 158, 3-Amino-4-phenylamino-thieno[2,3-b]pyridine-2-carboxylic acid amide]		> 25	
NC(=O)c1sc2nc3c(c(-c4ccco4)c2c1N)CCC3 [Compound 99, 3-Amino-4-furan-2-yl-6,7-dihydro-5H-cyclopenta[b]thieno[3,2-e]pyridine-2-carboxylic acid amide]			EC50 [3]: 5 to 25 µM
COc1cccc(-c2ccc3c(N)c(C(=O)Nc4cc(C(F)(F)F)ccc4OC)sc3n2)c1 [Compound 558, 3-amino-6-(3-methoxyphenyl)-N-[2-methoxy-5-(trifluoromethyl)phenyl] thieno[2,3-b]pyridine-2-carboxamide]	< 5		
COc1cccc(-c2ccc3c(N)c(C(=O)Nc4cccc(SC)c4)sc3n2)c1 [Compound 505, 3-amino-6-(3-methoxyphenyl)-N-(3-methylsulfanylphenyl)thieno[2,3-b] pyridine-2-carboxamide]	< 5		
CN1CCc2nc3sc(C(=O)Nc4cccc(C#N)c4)c(N)c3cc2C1 [Compound 112, 3-Amino-6-methyl-5,6,7,8-tetrahydro-thieno[2,3-b][1,6]naphthyridine-2-carboxylic acid (3-cyano-phenyl)-amide]		5 to 25	
COc1ccc(-c2ccc3c(N)c(C(=O)Nc4ccc(F)cc4Cl)sc3n2)cc1OC [Compound 539, 3-amino-N-(2-chloro-4-fluoro-phenyl)-6-(3,4-dimethoxyphenyl)thieno[2,3-b] pyridine-2-carboxamide]	< 5		
COc1cc2c(cc1OC)CN(C(=O)c1sc3nc4c(cc3c1N)CN(C)CC4)CC2 [Compound 274, (3-Amino-6-methyl-5,6,7,8-tetrahydro-thieno[2,3-b][1,6]naphthyridin-2-yl)-(6,7-dimethoxy-3,4-dihydro-1H-isoquinolin-2-yl)-methanone]		> 25	
COc1ccc(NC(=O)c2sc3nc4c(cc3c2N)CN(C(C)C)CC4)cc1 [Compound 23, 3-Amino-6-isopropyl-5,6,7,8-tetrahydro-thieno[2,3-b][1,6]naphthyridine-2-carboxylic acid (4-methoxy-phenyl)-amide]		< 5	
Cc1ccc(F)cc1NC(=O)c1sc2nc3c(cc2c1N)CN(C)CC3 [Compound 61, 3-Amino-6-methyl-5,6,7,8-tetrahydro-thieno[2,3-b][1,6]naphthyridine-2-carboxylic acid (5-fluoro-2-methyl-phenyl)-amide]		< 5	
Cc1cc(C)c2c(N)c(C(=O)NCc3ccccc3)sc2n1 [Compound 260, 3-Amino-4,6-dimethyl-thieno[2,3-b]pyridine-2-carboxylic acid benzylamide]			EC50 [3]: > 25 µM
Nc1c(C(=O)Nc2ccc(Br)cc2)sc2nc(-c3ccncc3)ccc12 [Compound 416, 3-amino-N-(4-bromophenyl)-6-(4-pyridyl)thieno[2,3-b]pyridine-2-carboxamide]	< 5		
Nc1c(C(=O)Nc2cc(Cl)cc(Cl)c2)sc2nc(-c3ccc(F)cc3)ccc12 [Compound 622, 3-amino-N-(3,5-dichlorophenyl)-6-(4-fluorophenyl)thieno[2,3-b]pyridine-2-carboxamide]	< 5		
CCc1nc2sc(C(=O)Nc3cccc(C(F)(F)F)c3)c(N)c2cc1C [Compound 93, 3-Amino-6-ethyl-5-methyl-thieno[2,3-b]pyridine-2-carboxylic acid (3-trifluoromethyl-phenyl)-amide]		5 to 25	
